Here are results for two substances from patent US20220396819A1, “METHOD FOR PRODUCING PEPTIDE HAVING PHYSIOLOGICAL ACTIVITY, AND PEPTIDE COMPRISING SHORT LINKER” (priority 2019, published 2022).

Positions of bridges follow the written chain, without caps; N, C: chain ends. No end group written: not given here.

Type in all cases: cell-based
In assay [1] the test system is receptor tyrosine kinase (RTK). As to the kind of experiment: RTK specificity, Proteome Profiler Human Phospho-RTK Array Kit, HEK293E cells. The note with it: 200 ng/mL peptide or 100 ng/mL HGF, 10 minutes, FIG. 10. Here is the method:
The receptor tyrosine kinase (RTK) specificity of the HGF-PAS dimer peptide was evaluated using Proteome Profiler Human Phospho-RTK Array Kit (R&D Systems).
HEK293E cells confluent in a 10 cm cell culture dish were starved by culturing for 24 hours in D-MEM medium containing 0.5% FBS (Thermo Fisher Scientific) and penicillin-streptomycin (Nacalai Tesque). The starved HEK293E cells were stimulated with 200 ng/mL AET-PAS-aMD4dY-PEG11 for 10 minutes. As a positive control, 100 ng/mL HGF was similarly stimulated for 10 minutes. As a negative control, PBS was added and stimulated for 10 minutes (Mock group). After removing the medium and washing the cells once with PBS, the cells were lysed by adding 1 mL of Lysis buffer 17 containing a Protease inhibitor cocktail (Nacalai Tesque). The lysate solution was centrifuged at 14,000 G for 5 minutes to obtain the supernatant as a lysate.
The lysate was analyzed using Proteome Profiler Human Phospho-RTK Array Kit. Molecular Imager ChemiDoc XRS System (Bio-Rad) was used to detect chemiluminescence.

The test system of assay [2] is HuCCT1 cells. Description: Wound healing effect, scratch in HuCCT1 cell culture. The note with it: 33 ng/mL HGF or 100 ng/mL peptide, N=4, FIG. 16. Here is the method:
HGF has been reported to promote cell wound healing ability by activating Met (K. Ito, et al. Nat. Commun. 6, 6373, 2015). Therefore, HuCCT1 cell culture was used to evaluate whether the HGF-PAS dimer peptide would promote wound healing as HGF.
To 96-well cell culture plates, 50,000 HuCCT1 cells suspended in RPMI 1640 medium with 10% FBS were added per well and incubated overnight under the conditions of 37° C. and 5% CO2. Cells in the center of the culture wells were scraped using a 1000 μL Thermo Scientific ART chip (Thermo Fisher Scientific) and washed with low serum medium (RPMI 1640 medium with 0.5% FBS). Low serum medium containing 33 ng/mL HGF or 100 ng/mL AET-PAS-aMD4dY-PEG11 was added, and the cells were cultured under the conditions of 37° C. and 5% CO2. BioStudio-T (Nikon Corporation) was used for cell observation, and cells were automatically photographed every hour. The rate of wound healing (μm/h) was calculated as ((wound width 1 hour after wound creation)−(wound width 7 hours after wound creation))/6 (N=4).

For assay [3], the system named is HuCCT1 cells. Description: Tubular structure formation of HuCCT1 cells in collagen gel. The conditions noted are these: 40 ng/mL, day 7. The text has this: It is known that HGF is allowed to act on HUVEC cells and HuCCT1 cells contained in collagen gel to form a tubular structure (K. Ito, et al. Nat. Commun. 6, 6373, 2015). It has also been reported that a Met full agonist having a function similar to that of HGF can form a tubular structure in the above cells, whereas a partial agonist having only a partial function cannot promote the formation of a tubular structure (W. Miao, et al. Int. J. Mol. Sci. 19, 3141, 2018). Therefore, it was decided to confirm whether the HGF-PAS dimer peptide was a full agonist or a partial agonist by using a tubular structure formation experiment using HuCCT1 cells.
To 8 equivalents of CellMatrix type IA (Nitta Gelatin), 1 equivalent of 10-fold concentrated D-MEM/F12 (Thermo Fisher Scientific) and 1 equivalent of reconstitution buffer (22 g/L sodium bicarbonate, 47.7 g/L HEPES, 0.05N sodium hydroxide aqueous solution) were mixed in order on ice. HuCCT1 cells were added at 25,000 cells per mL of the mixture and mixed on ice. To a 48-well cell culture plate, 400 μL of the above mixture was added, and the mixture was allowed to stand for 4 hours under the conditions of 37° C. and 5% CO2 for gelation. Onto the formed intracellular encapsulated collagen gel, 500 μL of RPMI 1640 medium containing 10% FBS was added. The cell-stimulating group was cultured by adding 35 ng/mL HGF or 40 ng/mL AET-PAS-aMD4dY-PEG11. […]

Take “AETCRQFNRRTHEVWNLDCGAAPAAPAPAAPAAPAPAAPAAPGCRQFNRRTHEVWNLDC (disulfide 4-19, 44-59; also: PEG11) [AET-PAS-aMD4dY-PEG11]”: the “RTK phosphorylation (specificity)” value in assay [1] is recorded as “Met was specifically phosphorylated”. Besides, the “improvement of the rate of wound healing” value in the assay with HuCCT1 cells [2] is reported as “about 1.6 times”. Besides, the “agonist type (full or partial) for Met” value in the assay on HuCCT1 cells [3] was “full agonist for Met”.
For the substance “HGF: recombinant human HGF (rhHGF, R&D Systems)”, the “RTK phosphorylation (specificity)” value in assay [1] is “Met was specifically phosphorylated”. Also, the “improvement of the rate of wound healing” value in the assay with HuCCT1 cells [2] is reported as “about 1.6 times”.
